# Where “and” joins values, the source holds several entries; their conditions need not be identical. Equal values may be shown once.
# Tested on: S. aureus
# Experiment: microplate biofilm formation assay (crystal violet)
# Format: cell-based
# Parameters: key to Relative Biofilm Score: crystal violet conc. / non-treated control conc. (1 = control)
# Description: The synergy between a D-alpha hydroxy acid and an antimicrobial agent was determined through a standard microplate biofilm formation assay (Antimicrob Agents Chemother. 2009, 53, 4159-4166—which is incorporated in its entirety by reference). […] Before incubation each well received about 0, about 2, about 20, or about 200 μg/mL L- or D-lactic acids and about 0.0 or about 0.5 μg/mL chlorhexidine (CHX). The plates were incubated for approximately 20 hours at about 37° C. and then the supernatant of the wells was removed. Each well was gently washed 3 times with phosphate buffered saline, and the biofilm was fixed by incubating the plates at about 60° C. for about 1 hour. The biofilm was then stained by incubating at about 37° C. in about 100 μL about 0.5% crystal violet for about 20 minutes. The plates were then thoroughly rinsed with tap water to remove any excess crystal violet and dried. The residual crystal violet was then extracted with about 200 μL of about 33% acetic acid. About 150 μL of the about 33% acetic acid extractant was then diluted with about 2000 μL acetonitrile and the quantity of crystal violet was determined by measuring the absorbance of the resulting solution at about 590 nanometers. The concentration of crystal violet is directly proportional to the amount of biofilm formation in each well. Each set of concentrations was measured at least four times. The average crystal violet concentration was divided by the average crystal violet concentration for a non-treated control (about 0.0 μg/mL CHX and about 0.0 μg/mL lactic acid) to obtain a relative biofilm formation score. In the same manner as Example 1, the synergy between a D-alpha hydroxy acid and the combination of rifampin and minocycline was determined. […] Before incubation each well received about 0 μg/mL or about 200 μg/mL of L- or D-lactic acid and about 0 ng/mL or about 5 ng/mL each of rifampin and minocycline. The plates were incubated for about 20 hours at about 37° C. and then the supernatant of the wells was removed. The quantity of biofilm formation in each well was determined using the protocol detailed in Example 1.
# [1] = 2 μg/mL lactic acid combined with 0.5 μg/mL CHX
# [2] = 2 μg/mL lactic acid, 0.0 μg/mL CHX
# [3] = 20 μg/mL lactic acid combined with 0.5 μg/mL CHX
# [4] = 20 μg/mL lactic acid, 0.0 μg/mL CHX
# [5] = 200 μg/mL lactic acid combined with 5.0 ng/mL Rif/Min, Table 2
# [6] = 200 μg/mL lactic acid combined with 0.5 μg/mL CHX
# [7] = 200 μg/mL lactic acid, 0.0 μg/mL CHX
# [8] = 200 μg/mL lactic acid, 0.0 ng/mL Rif/Min, Table 2
SMILES,"Relative Biofilm Score (0.5 μg/mL CHX alone (0 μg/mL lactic acid), relative to non-treated control, values approximate)",Relative Biofilm Score [1],Relative Biofilm Score [2],Relative Biofilm Score [3],Relative Biofilm Score [4],Relative Biofilm Score [5],Relative Biofilm Score [6],Relative Biofilm Score [7],Relative Biofilm Score [8],"effect on biofilm formation (combined with chlorhexidine, not by itself)","effect on biofilm formation (combined with rifampin and minocycline, not by itself)",effect on biofilm formation (alone or in combination with chlorhexidine at any concentration),effect on biofilm formation (by itself or combined with rifampin and minocycline)
"[H]/N=C(\N/C(=N/[H])NCCCCCCNC(=N)NC(=N)Nc1ccc(Cl)cc1)Nc1ccc(Cl)cc1 [CHX, chlorhexidine]",0.26 ± 0.04 and 0.26 ± 0.05,,,,,,,,,,,,
"C[C@@H](O)C(=O)O [D-Lactic Acid, D-lactic acid]",,0.19 ± 0.03,1.07 ± 0.24,0.12 ± 0.03,1.11 ± 0.17,0.27 ± 0.04,0.04 ± 0.01,1.10 ± 0.20,0.92 ± 0.24,statistically significant dose dependent decrease in biofilm formation,statistically significant decrease in biofilm formation,,
"C[C@H](O)C(=O)O [L-Lactic Acid, L-lactic acid]",,0.23 ± 0.05,1.01 ± 0.20,0.33 ± 0.08,1.06 ± 0.18,0.43 ± 0.03,0.27 ± 0.07,1.16 ± 0.18,1.04 ± 0.15,,,did not show any statistically significant effects on biofilm formation,did not show any reduction in biofilm formation
